Among the data in patent US11648254B2 (Kumquat Biosciences Inc., priority 2021, dated 2023) are IC50 values, retold here.

This assay concerns the target SOS1 (Homo sapiens (Human), UniProt Q07889). The experiment in a line: Ras-SOS interaction assay (HTRF). The class given is biochemical. The text has this:
The ability of any compound of the present disclosure to reduce a Ras protein signaling output by, e.g., interfering or disrupting interaction (or binding) between SOS1 and a Ras protein can be assessed in vitro. For example, the equilibrium interaction of human SOS1 (hSOS1) with human wildtype Kras or K-Ras mutant (e.g., hK-Ras G12C mutant, or hK-RasG12C) can be assessed as a proxy or an indication for a subject compound's ability to inhibit SOS. Detection of such interaction is achieved by measuring homogenous time-resolved fluorescence resonance energy transfer (HTRF) from (i) a fluorescence resonance energy transfer (FRET) donor (e.g., antiGST-Europium) that is bound to GST-tagged K-RasG12C to (ii) a FRET acceptor (e.g., anti-6His-XL665) bound to a His-tagged hSOS1.
The assay buffer can contain 5 mM HEPES pH 7.4, 150 mM NaCl, 10 mM EDTA, 1 mM DTT, 0.05% BSA, 0.0025% (v/v) Igepal and 100 mM KF. A Ras working solution is prepared in assay buffer containing typically 10 nM of the protein construct (e.g., GST-tagged hK-RasG12C) and 2 nM of the FRET donor (e.g., antiGST-Eu(K) from Cisbio, France). A SOS1 working solution is prepared in assay buffer containing typically 10 nM of the protein construct (e.g., His-hSOS1) and 10 nM of the FRET acceptor (e.g., anti-6His-XL665 from Cisbio, France). An inhibitor control solution is prepared in assay buffer containing 10 nM of the FRET acceptor without the SOS1 protein.
A fixed reaction mixture with or without test compound is transferred into a 384-well plate. Ras working solution is added to all wells of the test plate. SOS1 working solution is added to all wells except for those that are subsequently filled the inhibitor control solution. After approximately 60 min incubation, the fluorescence is measured with a M1000Pro plate reader (Tecan) using HTRF detection (excitation 337 nm, emission 1: 620 nm, emission 2: 665 nm). Compounds are tested in duplicates at different concentrations (for example, 10 μM, 2.5 μM, 0.63 μM, 0.16 μM, 0.04 μM, 0.01 μM test compound). The ratiometric data (i.e., emission 2 divided by emission 1) is used to calculate IC50 values against SOS1 using GraphPad Prism (GraphPad software).
In general terms: Time-resolved FRET reads energy transfer from a long-lived donor to a nearby acceptor.

[1] abbreviates: K-RasG13D utilized, read-out: IC50 inhibition of SOS.
Where [2] appears, read: K-RasG13D, read-out: IC50 value against SOS1.

Like-named read-outs stand apart in the source and are kept apart here. A value given as a limit tells only on which side of the number the result lay.

Sequence of SOS1 (Q07889 564-1049): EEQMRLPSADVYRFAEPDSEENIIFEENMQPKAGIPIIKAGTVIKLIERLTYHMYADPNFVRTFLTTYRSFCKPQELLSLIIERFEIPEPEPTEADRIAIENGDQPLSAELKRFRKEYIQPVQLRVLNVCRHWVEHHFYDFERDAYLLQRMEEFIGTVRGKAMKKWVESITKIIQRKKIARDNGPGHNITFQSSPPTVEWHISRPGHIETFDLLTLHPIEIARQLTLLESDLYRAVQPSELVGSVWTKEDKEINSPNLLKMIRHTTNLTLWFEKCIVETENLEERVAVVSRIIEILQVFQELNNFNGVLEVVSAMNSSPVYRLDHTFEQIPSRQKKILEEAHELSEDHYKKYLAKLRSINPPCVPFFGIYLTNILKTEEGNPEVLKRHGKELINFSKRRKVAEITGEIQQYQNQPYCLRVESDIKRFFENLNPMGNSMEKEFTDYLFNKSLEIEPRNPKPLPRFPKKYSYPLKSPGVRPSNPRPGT

As a reminder, the IC50 is the concentration at which inhibition is half-maximal. As for `COc1nc2nc(OCC3CCOCC3)nc(N[C@H](C)c3cccc(C(F)F)c3F)c2cc1C1(C#N)CC1` [Compound 275, (R)-1-(4-((1-(3-(difluoromethyl)-2-fluorophenyl)ethyl)amino)-7-methoxy-2-((tetrahydro-2H-pyran-4-yl)methoxy)pyrido[2,3-d]pyrimidin-6-yl)cyclopropane-1-carbonitrile], the IC50 under setting [1] lay within 100 to 1000 nM.

On to `COc1nc2ncnc(N[C@H](C)c3cccc(C(F)(F)CO)c3F)c2cc1N1CCS(=O)(=O)CC1` [Compound 279, (R)-4-(4-((1-(3-(1,1-difluoro-2-hydroxyethyl)-2-fluorophenyl)ethyl)amino)-7-methoxypyrido[2,3-d]pyrimidin-6-yl)thiomorpholine 1,1-dioxide], for which, under setting [1], the IC50 lay within 100 to 1000 nM.

Regarding `COc1nc2ncnc(N[C@H](C)c3cccc(C(F)(F)F)c3F)c2cc1C1(C#N)CCN(C(C)C)CC1` [Compound 280, (R)-4-(4-((1-(2-fluoro-3-(trifluoromethyl)phenyl)ethyl)amino)-7-methoxypyrido[2,3-d]pyrimidin-6-yl)-1-isopropylpiperidine-4-carbonitrile], the IC50 under setting [1] lay in the range of 100 to 1000 nM. For `COc1nc2ncnc(N[C@H](C)c3cccc(C(F)(F)F)c3F)c2cc1C1CCN(C)CC1` [Compound 281, (R)-N-(1-(2-fluoro-3-(trifluoromethyl)phenyl)ethyl)-7-methoxy-6-(1-methylpiperidin-4-yl)pyrido[2,3-d] pyrimidin-4-amine], the IC50 under setting [1] was in the range of 100 to 1000 nM.

Take `COc1nc2ncnc(N[C@H](C)c3cccc(C(F)(F)F)c3C)c2cc1C1CCN(C)CC1` [Compound 282, (R)-7-methoxy-N-(1-(2-methyl-3-(trifluoromethyl)phenyl)ethyl)-6-(1-methylpiperidin-4-yl)pyrido[2,3-d] pyrimidin-4-amine]: under setting [1], the IC50 fell in the range of 100 to 1000 nM.

As for `COc1nc2nc(C)nc(N[C@H](C)c3cccc(C(F)(F)C4CN(C(C)C)C4)c3F)c2cc1C1(C#N)CC1` [Compound 284, (R)-1-(4-((1-(3-(difluoro(1-isopropylazetidin-3-yl)methyl)-2-fluorophenyl)ethyl)amino)-7-methoxy-2-methylpyrido[2,3-d]pyrimidin-6-yl)cyclopropane-1-carbonitrile], the IC50 under setting [1] is under 100 nM. On the same count and under the same terms, in the case of `COc1nc2nc(OCC3CN(C(C)C)C3)nc(N[C@H](C)c3cccc(C(F)(F)F)c3F)c2cc1C1CCS(=O)(=O)CC1` [Compound 286, (R)-4-(4-((1-(2-fluoro-3-(trifluoromethyl)phenyl)ethyl)amino)-2-((1-isopropylazetidin-3-yl)methoxy)-7-methoxypyrido[2,3-d]pyrimidin-6-yl)tetrahydro-2H-thiopyran 1,1-dioxide] it was 100 to 1000 nM. `COc1nc2nc(C)nc(N[C@H](C)c3cccc(C(F)(F)F)c3F)c2cc1N1CCN(C2CCOCC2)CC1` [Compound 290, (R)-N-(1-(2-fluoro-3-(trifluoromethyl)phenyl)ethyl)-7-methoxy-2-methyl-6-(4-(tetrahydro-2H-pyran-4-yl)piperazin-1-yl)pyrido[2,3-d]pyrimidin-4-amine]: the IC50 reads like this: under setting [1], under 100 nM; under setting [2], under 50 nM. For `COc1nc2nc(C)nc(N[C@H](C)c3cccc(C(F)(F)F)c3F)c2cc1C1(C#N)CCN(C(C)C)CC1` [Compound 306, (R)-4-(4-((1-(2-fluoro-3-(trifluoromethyl)phenyl)ethyl)amino)-7-methoxy-2-methylpyrido[2,3-d]pyrimidin-6-yl)-1-isopropylpiperidine-4-carbonitrile], the IC50 under setting [1] is 100 to 1000 nM.

Regarding `COc1nc2nc(C)nc(N[C@H](C)c3cccc(C(F)(F)F)c3F)c2cc1N1CCN(C(=O)[C@H]2COCCO2)CC1` [Compound 310, ((R)-1,4-dioxan-2-yl)(4-(4-(((R)-1-(2-fluoro-3-(trifluoromethyl)phenyl)ethyl)amino)-7-methoxy-2-methylpyrido[2,3-d]pyrimidin-6-yl)piperazin-1-yl)methanone], the IC50 under setting [1] was under 100 nM.

Take `COc1nc2nc(C)nc(N[C@H](C)c3cccc(C(F)(F)F)c3F)c2cc1N1CCN(C(=O)C2CN(C)CCO2)CC1` (stereo partly drawn) [Compound 311, (4-(4-(((R)-1-(2-fluoro-3-(trifluoromethyl)phenyl)ethyl)amino)-7-methoxy-2-methylpyrido[2,3-d]pyrimidin-6-yl)piperazin-1-yl)(4-methylmorpholin-2-yl)methanone]: the IC50 under setting [1] lay within 100 to 1000 nM. On to `Cc1nc(N[C@H](C)c2cccc(C(F)F)c2F)c2cc(C3(C#N)CC3)c(NCC(C)(C)O)nc2n1` [Compound 319, (R)-1-(4-((1-(3-(difluoromethyl)-2-fluorophenyl)ethyl)amino)-7-((2-hydroxy-2-methylpropyl)amino)-2-methylpyrido[2,3-d]pyrimidin-6-yl) cyclopropane-1-carbonitrile], for which the IC50 under setting [1] lay within 100 to 1000 nM. `Cc1nc(N[C@H](C)c2cccc(C(F)F)c2F)c2cc(N3CCN(C(C)C)CC3)c(NC3CNC3)nc2n1` [Compound 357, (R)-N7-(azetidin-3-yl)-N4-(1-(3-(difluoromethyl)-2-fluorophenyl)ethyl)-6-(4-isopropylpiperazin-1-yl)-2-methylpyrido[2,3-d]pyrimidine-4,7-diamine]: the IC50 is, setting by setting: under setting [1], under 100 nM; under setting [2], under 50 nM. In the case of `Cc1nc(N[C@H](C)c2cccc(C(F)F)c2F)c2cc(N3CCN(C)CC3)c(OCCN(C)C)nc2n1` [Compound 371, (R)-N-(1-(3-(difluoromethyl)-2-fluorophenyl)ethyl)-7-(2-(dimethylamino)ethoxy)-2-methyl-6-(4-methylpiperazin-1-yl)pyrido[2,3-d] pyrimidin-4-amine], the IC50 runs as follows: under setting [1], under 100 nM; under setting [2], under 50 nM. In the same order, the values of `COc1nc2nc(C)nc(N[C@H](C)c3cccc(C(F)(F)F)c3F)c2cc1N1CCN(C(=O)[C@@H]2COCCO2)CC1` [Compound 382, ((S)-1,4-dioxan-2-yl)(4-(4-(((R)-1-(2-fluoro-3-(trifluoromethyl)phenyl)ethyl)amino)-7-methoxy-2-methylpyrido[2,3-d]pyrimidin-6-yl)piperazin-1-yl)methanone] are under 100 nM and under 50 nM.

Regarding `Cc1nc(N[C@H](C)c2cccc(C(F)F)c2F)c2cc(C3(C#N)CC3)c(NCC3COC3)nc2n1` [Compound 398, (R)-1-(4-((1-(3-(difluoromethyl)-2-fluorophenyl)ethyl)amino)-2-methyl-7-((oxetan-3-ylmethyl)amino)pyrido[2,3-d]pyrimidin-6-yl)cyclopropane-1-carbonitrile], under setting [1], the IC50 is 100 to 1000 nM. Still for that read-out and setting: in the case of `Cc1nc(N[C@H](C)c2cccc(C(F)F)c2F)c2cc(C3(C#N)CC3)c(OC3CCOCC3)nc2n1` [Compound 403, (R)-1-(4-((1-(3-(difluoromethyl)-2-fluorophenyl)ethyl)amino)-2-methyl-7-((tetrahydro-2H-pyran-4-yl)oxy)pyrido [2,3-d]pyrimidin-6-yl)cyclopropane-1-carbonitrile] it was 100 to 1000 nM.

With `C[C@@H](Nc1ncnc2nc(OC3COC3)c(C3(C(F)F)CC3)cc12)c1cccc(C(F)F)c1F` [Compound 408, (R)-N-(1-(3-(difluoromethyl)-2-fluorophenyl)ethyl)-6-(1-(difluoromethyl)cyclopropyl)-7-(oxetan-3-yloxy)pyrido[2,3-d]pyrimidin-4-amine], the IC50 under setting [1] was in the range of 100 to 1000 nM. For the molecule `COc1nc2ncnc(N[C@H](C)c3cccc(C(F)F)c3F)c2cc1C1CCN(C2CCOCC2)CC1` [Compound 416, (R)-N-(1-(3-(difluoromethyl)-2-fluorophenyl)ethyl)-7-methoxy-6-(1-(tetrahydro-2H-pyran-4-yl)piperidin-4-yl)pyrido[2,3-d]pyrimidin-4-amine], the IC50 runs as follows: under setting [1], under 100 nM; under setting [2], under 50 nM. Consider `Cc1nc(N[C@H](C)c2cccc(C(F)(F)F)c2C)c2cc(C3(C#N)CC3)c(Cl)nc2n1` [Compound 423, (R)-1-(7-chloro-2-methyl-4-((1-(2-methyl-3-(trifluoromethyl)phenyl)ethyl)amino)pyrido[2,3-d]pyrimidin-6-yl)cyclopropane-1-carbonitrile], for which, under setting [1], the IC50 is 100 to 1000 nM. For the molecule `COc1nc2nc(C)nc(N[C@H](C)c3cccc(C(F)(F)C4CCN(C(C)C)CC4)c3F)c2cc1C1CCN(C)CC1` [Compound 424, (R)-N-(1-(3-(difluoro(1-isopropylpiperidin-4-yl)methyl)-2-fluorophenyl)ethyl)-7-methoxy-2-methyl-6-(1-methylpiperidin-4-yl)pyrido[2,3-d]pyrimidin-4-amine], the IC50 under setting [1] was under 100 nM and the IC50 under setting [2] is under 50 nM.
